We go through 17 molecules from ChEMBL document CHEMBL1141107, “A novel series of non-carboxylic acid, non-hydantoin inhibitors of aldose reductase with potent oral activity in diabetic rat models: 6-(5-chloro-3-methylbenzofuran-2-sulfonyl)-2H-pyridazin-3-one and congeners” (J Med Chem, 2005).

Broadly, the IC50 is the concentration that gives 50% inhibition. Higher therefore signals weaker potency. In general, inhibition in vivo refers to the percentage by which the read-out fell short of the control. Low readings indicate little suppression, high ones strong suppression. The Inhibition is the relative decrease from the control value, in per cent. Low readings indicate a response near the control, high ones a response far below the control. Broadly, the ED50 is the dose that gives a 50% effect, or the effect in half of the subjects. By Cmax is commonly meant the highest concentration seen after dosing.

Data set [1] concerns the target Aldo-keto reductase family 1 member B1 (Homo sapiens, UniProt P15121). Briefly: In vitro inhibitroy concentration against Aldose reductase incubated at 24 degree C for 15 minutes in pH 7.0.
Data set [2] has as its system Rattus norvegicus. Briefly: Inhibition of sorbitol accumulation in diabetic rat by acute test dosed at 50 mg/kg. The class given is functional.
Data set [3] relates to Rattus norvegicus. Briefly: Inhibition of sorbitol accumulation in diabetic rat by chronic test dosed at 5 mg/kg. The format is functional.
Data set [4] concerns Rattus norvegicus. Briefly: Inhibition of sorbitol accumulation in diabetic rat by acute test dosed at 20 mg/kg. The class given is functional.
Data set [5] deals with Rattus norvegicus. In words: Inhibition of fructose accumulation in diabetic rat after oral gavage administration, pH 4.5 by chronic test dosed at 20 mg/kg. The class given is functional.
The test system of data set [6] is Rattus norvegicus. In words: Inhibition of sorbitol accumulation in diabetic rat by chronic test dosed at 20 mg/kg. The format is functional.
The subject of data set [7] is Rattus norvegicus. Briefly: Inhibition of sorbitol accumulation in diabetic rat by acute test dosed at 5 mg/kg. The format is functional.
Data set [8] has as its system Rattus norvegicus. In words: Inhibition of fructose accumulation in diabetic rat after oral gavage administration incubated at RT for 60 minutes in pH 4.5 by acute test dosed at 20 mg/kg. The class given is functional. The following applies: 1 h.
The subject of data set [9] is Rattus norvegicus. In words: Inhibition of fructose accumulation in diabetic rat after oral gavage administration, pH 4.5 by chronic test dosed at 5 mg/kg. The format is functional.
For data set [10], the system named is Rattus norvegicus. In words: Inhibition of fructose accumulation in diabetic rat after oral gavage administration incubated at RT for 60 minutes in pH 4.5 by acute test dosed at 5 mg/kg. The class given is functional. Conditions: 1 h.
Data set [11] relates to Rattus norvegicus. Briefly: Inhibition of fructose accumulation in diabetic rat after oral gavage administration incubated at RT for 60 minutes in pH 4.5 by chronic test 10 mg/kg. Conditions: 1 h.
The subject of data set [12] is Rattus norvegicus. In words: Inhibition of fructose accumulation in diabetic rat after oral gavage administration incubated at RT for 60 minutes in pH 4.5 by chronic test 30 mg/kg. The following applies: 1 h.
Data set [13] concerns Rattus norvegicus. Briefly: Inhibition of sorbitol accumulation in diabetic rat by acute test dosed at 10 mg/kg. The class given is functional.
The species named for data set [14] is Rattus norvegicus. In words: Inhibition of sorbitol accumulation in diabetic rat by chronic test. The class given is functional.
The species entered for data set [15] is Rattus norvegicus. Briefly: Inhibition of sorbitol accumulation in diabetic rat by acute test. The format is functional.
Data set [16] deals with Rattus norvegicus. In words: Inhibition of sorbitol accumulation in diabetic rat by acute test dosed at 3 mg/kg. The format is functional.
Data set [17] deals with Rattus norvegicus. In words: Inhibition of fructose accumulation in diabetic rat after oral gavage administration incubated at RT for 60 minutes in pH 4.5 by acute test dosed at 3 mg/kg. The class given is functional. Conditions: 1 h.
Data set [18] concerns Rattus norvegicus. In words: Inhibition of fructose accumulation in diabetic rat after oral gavage administration incubated at RT for 60 minutes in pH 4.5 by acute test dosed at 10 mg/kg. The format is functional. Conditions: 1 h.
Data set [19] has as its system Rattus norvegicus. In words: Inhibition of sorbitol accumulation in diabetic rat by chronic test dosed at 10 mg/kg. The class given is functional.
In data set [20] the test system is Rattus norvegicus. Briefly: Inhibition of fructose accumulation in diabetic rat after oral gavage administration, pH 4.5 by chronic test dosed at 10 mg/kg. The class given is functional.
In data set [21] the test system is Rattus norvegicus. Briefly: Inhibition of sorbitol accumulation in diabetic rat by chronic test does at 20 mg/kg. The format is functional.
Data set [22] deals with Rattus norvegicus. Briefly: Inhibition of sorbitol accumulation in diabetic rat by acute test dosed at 30 mg/kg. The class given is functional.
Data set [23] has as its system Rattus norvegicus. Briefly: Inhibition of fructose accumulation in diabetic rat after oral gavage administration, pH 4.5 by chronic test. The format is functional.
Data set [24] has as its system Rattus norvegicus. Briefly: Inhibition of sorbitol accumulation in diabetic rat by acute test dosed at 60 mg/kg. The class given is functional.
In data set [25] the test system is Rattus norvegicus. In words: Dose required for fructose accumulation in diabetic rat after oral gavage administration incubated at RT for 60 minutes in pH 4.5 by acute test. The class given is functional.
Data set [26] can be described thus: Maximum plasma concentration in rat was determined. The class given is ADME, organism-based.
For data set [27], the species on record is Rattus norvegicus. In words: Dose required for inhibition of sorbitol accumulation in diabetic rat by acute test. The class given is functional.
Data set [28] concerns Rattus norvegicus. In words: Inhibition of fructose accumulation in diabetic rat after oral gavage administration incubated at RT for 60 minutes in pH 4.5 by acute test dosed at 25 mg/kg. The format is functional. Conditions: 1 h.
The test system of data set [29] is Rattus norvegicus. In words: Dose required for fructose accumulation in diabetic rat after oral gavage administration incubated at RT for 60 minutes in pH 4.5 by acute. The class given is functional.
Data set [30] deals with Rattus norvegicus. Briefly: Inhibition of fructose accumulation in diabetic rat after oral gavage administration incubated at RT for 60 minutes in pH 4.5 by acute test dosed at 50 mg/kg. The format is functional. Conditions: 1 h.
For data set [31], the system named is Rattus norvegicus. Briefly: Inhibition of sorbitol accumulation in diabetic rat by acute test dosed at 25 mg/kg. The class given is functional.
Data set [32] relates to Rattus norvegicus. In words: Inhibition of sorbitol accumulation in diabetic rat by acute test; dosed at 10 mg/kg. The format is functional.
Data set [33] deals with Rattus norvegicus. In words: Inhibition of sorbitol accumulation in diabetic rat by acute test; dosed at 20 mg/kg. The class given is functional.
Data set [34] concerns Rattus norvegicus. Briefly: Inhibition of fructose accumulation in diabetic rat after oral gavage administration incubated at RT for 60 minutes in pH 4.5 by acute test; dosed at 20 mg/kg. The class given is functional. Conditions: 1 h.
The test system of data set [35] is Rattus norvegicus. In words: Inhibition of fructose accumulation in diabetic rat after oral gavage administration incubated at RT for 60 minutes in pH 4.5 by acute test; dosed at 10 mg/kg. The class given is functional. The following applies: 1 h.

With `O=c1ccc(S(=O)(=O)c2ccc(F)cc2)n[nH]1`, the IC50 in data set [1] was 474 nM. The same molecule displayed an inhibition in vivo at 50 mg/kg in the data set on Rattus norvegicus [2] of 81%.
In the case of `O=S(=O)(c1cc(Cl)cc(Cl)c1)c1ccc(O)nn1`, the inhibition in vivo at 5 mg/kg is 63% in the data set on Rattus norvegicus [3], 68% with Rattus norvegicus [7], 30% with Rattus norvegicus [9] and 32% in the data set on Rattus norvegicus [10]. The inhibition in vivo at 20 mg/kg with Rattus norvegicus [4] worked out at 91%; with Rattus norvegicus [5], 38%; with Rattus norvegicus [6], 73%; with Rattus norvegicus [8], 49%.
In turn, `O=c1ccc(S(=O)(=O)c2cccc(F)c2F)n[nH]1` returned an inhibition in vivo at 10 mg/kg with Rattus norvegicus [11] of 50%. The inhibition in vivo at 30 mg/kg in the data set with Rattus norvegicus [12] turned out to be 81%. Also, the IC50 in [1] was 390 nM.
In the case of `O=c1ccc(S(=O)(=O)c2cccc(Cl)c2Cl)n[nH]1`, the values for the inhibition in vivo at 5 mg/kg with Rattus norvegicus [3] and in the data set with Rattus norvegicus [7] were 81% and 55%, respectively. In the data set on Rattus norvegicus [13], the inhibition in vivo at 10 mg/kg came out at 77%. Moreover, the inhibition in vivo at 20 mg/kg in the data set with Rattus norvegicus [4] was determined as 98%; in the data set with Rattus norvegicus [6], 89%. The same molecule displayed an IC50 in data set [1] of 55 nM.
For the molecule `O=S(=O)(c1ccccc1)c1ccc(S(=O)(=O)c2ccccc2)nn1`, the values for the Inhibition in the data set filed under Rattus norvegicus [14] and in the data set filed under Rattus norvegicus [15] were 50% and 58%, respectively.
Take `Cc1c(S(=O)(=O)c2ccc(O)nn2)sc2ccc(Cl)cc12`: the inhibition in vivo at 10 mg/kg in the data set on Rattus norvegicus [13] came out at 83%; with Rattus norvegicus [18], 51%. Moreover, the figures for the inhibition in vivo at 3 mg/kg in the data set with Rattus norvegicus [16] and in the data set with Rattus norvegicus [17] were 49% and 29%, respectively. In data set [1], it took 55 nM to reach half-maximal inhibition (IC50).
Regarding `O=c1ccc(S(=O)(=O)c2cccc3ccccc23)n[nH]1`, the inhibition in vivo at 10 mg/kg in the data set on Rattus norvegicus [13] amounted to 88%; in the data set on Rattus norvegicus [19], 60%; with Rattus norvegicus [18], 49%; with Rattus norvegicus [20], 31%. Besides, the inhibition in vivo at 20 mg/kg with Rattus norvegicus [4] was determined as 95%; in the data set on Rattus norvegicus [5], 43%; with Rattus norvegicus [6], 70%; in the data set with Rattus norvegicus [8], 55%. The concentration for half-maximal inhibition (IC50) in data set [1] came out at 150 nM.
The molecule `O=c1ccc(S(=O)(=O)c2c(Cl)cccc2Cl)n[nH]1` showed an inhibition in vivo at 20 mg/kg with Rattus norvegicus [21] of 75%. This molecule came in with an inhibition in vivo at 30 mg/kg in the data set on Rattus norvegicus [22] of 81%. This molecule displayed an IC50 in [1] of 50 nM.
As for `CC(C)c1c(S(=O)(=O)c2ccc(O)nn2)oc2ccc(Cl)cc12`, the Inhibition is reported as 48% in the data set listed under Rattus norvegicus [14] and 14% in the data set on Rattus norvegicus [23]. In addition, it took 92 nM to reach half-maximal inhibition in data set [1] (IC50).
In the data set with Rattus norvegicus [24], `O=c1ccc(S(=O)(=O)Cc2ccccc2)n[nH]1` displayed an inhibition in vivo at 60 mg/kg of 73%. Further, in data set [1], the IC50 turned out to be 600 nM.
As to `O=S(=O)(c1ccc2ccccc2c1)c1ccc(O)nn1`, the Inhibition in the data set on Rattus norvegicus [23] is 51%. The same molecule showed an inhibition in vivo at 20 mg/kg in the data set with Rattus norvegicus [6] of 74%. In addition, half-maximal inhibition in data set [1] (IC50) required 360 nM.
For the molecule `Cc1c(S(=O)(=O)c2ccc(=O)[nH]n2)oc2ccc(Cl)cc12`, the ED50 with Rattus norvegicus [25] stood at 0.8 mg/kg; in the data set filed under Rattus norvegicus [27], 0.2 mg/kg. Also, the highest level in data set [26] (Cmax) was 9000 ng/mL. The IC50 in [1] was 1 nM.
As for `O=S(=O)(c1ccc(O)nn1)c1ccc(Cl)cc1Cl`, the ED50 in the data set with Rattus norvegicus [25] was 3 mg/kg; in the data set filed under Rattus norvegicus [27] it was 0.8 mg/kg.
Consider `O=S(=O)(c1ccccc1)c1ccc(O)nn1`, for which the figures for the inhibition in vivo at 10 mg/kg in the data set with Rattus norvegicus [13] and in the data set with Rattus norvegicus [18] were 40% and 14%, respectively. Further, the inhibition in vivo at 25 mg/kg in the data set on Rattus norvegicus [28] amounted to 49%; in the data set on Rattus norvegicus [31], 73%. In addition, the ED50 was 25 mg/kg with Rattus norvegicus [29] and 15 mg/kg in the data set filed under Rattus norvegicus [27]. Also, the figures for the inhibition in vivo at 50 mg/kg in the data set with Rattus norvegicus [30] and in the data set on Rattus norvegicus [2] were 74% and 95%, respectively.
As for `O=c1ccc(S(=O)(=O)c2cc(Cl)ccc2Cl)n[nH]1`, the figures for the inhibition in vivo at 10 mg/kg in the data set on Rattus norvegicus [32] and with Rattus norvegicus [35] were 65% and 36%, respectively. Further, the inhibition in vivo at 20 mg/kg with Rattus norvegicus [33] was 79%; in the data set with Rattus norvegicus [34], 67%. The molecule also yielded an IC50 in [1] of 73 nM.
With `O=S(=O)(c1ccc(O)nn1)c1ccccc1Br`, at 50 mg/kg the inhibition in vivo in the data set with Rattus norvegicus [2] was 55%.
Turning to `O=c1ccc(S(=O)(=O)c2ccc(Br)cc2)n[nH]1`, the IC50 in data set [1] stood at 350 nM. Besides, in the data set with Rattus norvegicus [2], the inhibition in vivo at 50 mg/kg came to 26%.
